In PMC6407917, “Identification of GSK3186899/DDD853651 as a Preclinical Development Candidate for the Treatment of Visceral Leishmaniasis” (Journal of Medicinal Chemistry, 2018):

Tests used:
Test in all cases: biochemical
Parameters in all cases: species or system HEK293/K-562/placenta mixed human extract; Kinobeads chemoproteomic competition binding, quantified by TMT LC-MS/MS, dose response up to 20 uM
[1] = molecular target: AURKC (Homo sapiens, UniProt Q9UQB9)
[2] = molecular target: BRSK2 (Homo sapiens, UniProt Q8IWQ3)
[3] = molecular target: CDC42BPB (Homo sapiens, UniProt Q9Y5S2)
[4] = molecular target: DCK (Homo sapiens, UniProt P27707)
[5] = molecular target: EGFR (Homo sapiens, UniProt P00533)
[6] = molecular target: EIF2AK4 (Homo sapiens, UniProt Q9P2K8)
[7] = molecular target: EPHA7 (Homo sapiens, UniProt Q15375)
[8] = molecular target: FGFR1 (Homo sapiens, UniProt P11362)
[9] = molecular target: HCK (Homo sapiens, UniProt P08631)
[10] = molecular target: IRAK1 (Homo sapiens, UniProt P51617)
[11] = molecular target: KIT (Homo sapiens, UniProt P10721)
[12] = molecular target: MARK1 (Homo sapiens, UniProt Q9P0L2)
[13] = molecular target: MELK (Homo sapiens, UniProt Q14680)
[14] = molecular target: PDIK1L (Homo sapiens, UniProt Q8N165)
[15] = molecular target: PRKCB (Homo sapiens, UniProt P05771)
[16] = molecular target: PRKD3 (Homo sapiens, UniProt O94806)
[17] = molecular target: PRKG1 (Homo sapiens, UniProt Q13976)
[18] = molecular target: STK3 (Homo sapiens, UniProt Q13188)
[19] = molecular target: STK4 (Homo sapiens, UniProt Q13043)
[20] = molecular target: TGFBR1 (Homo sapiens, UniProt P36897)
[21] = molecular target: ULK3 (Homo sapiens, UniProt Q6PHR2)

Measured: IC50

Sequence of EIF2AK4 (Q9P2K8 whole entry): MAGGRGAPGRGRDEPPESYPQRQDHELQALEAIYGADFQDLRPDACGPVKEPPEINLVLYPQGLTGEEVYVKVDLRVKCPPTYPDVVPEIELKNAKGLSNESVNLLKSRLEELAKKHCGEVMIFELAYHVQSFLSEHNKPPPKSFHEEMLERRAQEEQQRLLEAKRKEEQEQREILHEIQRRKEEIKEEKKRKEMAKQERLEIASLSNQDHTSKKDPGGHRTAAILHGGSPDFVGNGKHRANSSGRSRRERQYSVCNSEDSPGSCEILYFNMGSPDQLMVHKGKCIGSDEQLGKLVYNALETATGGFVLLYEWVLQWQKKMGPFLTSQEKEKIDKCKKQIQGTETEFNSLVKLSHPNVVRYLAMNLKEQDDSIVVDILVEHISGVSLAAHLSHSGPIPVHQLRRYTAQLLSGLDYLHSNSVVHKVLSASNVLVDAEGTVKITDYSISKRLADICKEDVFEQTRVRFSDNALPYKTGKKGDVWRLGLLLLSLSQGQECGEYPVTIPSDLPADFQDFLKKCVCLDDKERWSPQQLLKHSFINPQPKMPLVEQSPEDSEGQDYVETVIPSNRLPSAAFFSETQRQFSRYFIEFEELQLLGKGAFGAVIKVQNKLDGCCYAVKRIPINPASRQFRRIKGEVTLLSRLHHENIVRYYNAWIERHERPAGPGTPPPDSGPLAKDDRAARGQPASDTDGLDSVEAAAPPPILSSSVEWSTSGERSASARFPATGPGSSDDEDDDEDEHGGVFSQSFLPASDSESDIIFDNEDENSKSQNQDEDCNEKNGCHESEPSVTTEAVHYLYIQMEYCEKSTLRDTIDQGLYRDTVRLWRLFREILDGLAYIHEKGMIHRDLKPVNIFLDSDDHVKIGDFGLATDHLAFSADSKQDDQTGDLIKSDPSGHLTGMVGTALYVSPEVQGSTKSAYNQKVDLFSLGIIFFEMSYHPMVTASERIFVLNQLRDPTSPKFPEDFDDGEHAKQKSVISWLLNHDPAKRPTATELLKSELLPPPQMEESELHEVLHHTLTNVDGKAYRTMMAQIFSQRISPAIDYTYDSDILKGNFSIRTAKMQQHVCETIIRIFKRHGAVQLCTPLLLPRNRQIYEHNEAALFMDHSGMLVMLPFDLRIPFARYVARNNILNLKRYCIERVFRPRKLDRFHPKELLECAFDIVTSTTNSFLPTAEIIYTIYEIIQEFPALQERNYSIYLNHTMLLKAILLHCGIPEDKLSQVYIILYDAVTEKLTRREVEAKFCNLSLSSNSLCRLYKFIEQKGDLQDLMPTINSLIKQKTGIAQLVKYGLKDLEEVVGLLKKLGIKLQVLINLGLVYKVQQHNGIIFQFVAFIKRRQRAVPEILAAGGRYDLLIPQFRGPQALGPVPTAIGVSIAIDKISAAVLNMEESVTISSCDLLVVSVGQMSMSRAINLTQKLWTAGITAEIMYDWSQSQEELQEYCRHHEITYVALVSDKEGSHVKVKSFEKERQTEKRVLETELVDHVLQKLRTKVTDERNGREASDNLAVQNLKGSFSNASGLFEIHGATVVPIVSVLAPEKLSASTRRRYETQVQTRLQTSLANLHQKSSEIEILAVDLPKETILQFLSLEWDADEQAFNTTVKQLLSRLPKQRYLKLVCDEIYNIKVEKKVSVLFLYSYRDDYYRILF
Sequence of ULK3 (Q6PHR2 whole entry): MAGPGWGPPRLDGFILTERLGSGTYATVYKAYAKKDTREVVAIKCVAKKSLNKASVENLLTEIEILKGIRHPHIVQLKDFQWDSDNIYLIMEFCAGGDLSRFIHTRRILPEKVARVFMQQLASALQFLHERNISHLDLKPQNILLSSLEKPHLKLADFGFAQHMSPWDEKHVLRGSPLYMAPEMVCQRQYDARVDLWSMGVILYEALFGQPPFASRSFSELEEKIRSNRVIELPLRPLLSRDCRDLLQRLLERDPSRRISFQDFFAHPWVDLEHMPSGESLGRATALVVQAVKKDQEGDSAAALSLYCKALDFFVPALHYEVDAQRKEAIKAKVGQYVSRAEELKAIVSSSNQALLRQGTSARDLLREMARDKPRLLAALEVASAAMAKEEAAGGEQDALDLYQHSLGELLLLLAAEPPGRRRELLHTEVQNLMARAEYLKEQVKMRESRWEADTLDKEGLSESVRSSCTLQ
Sequence of MELK (Q14680 whole entry): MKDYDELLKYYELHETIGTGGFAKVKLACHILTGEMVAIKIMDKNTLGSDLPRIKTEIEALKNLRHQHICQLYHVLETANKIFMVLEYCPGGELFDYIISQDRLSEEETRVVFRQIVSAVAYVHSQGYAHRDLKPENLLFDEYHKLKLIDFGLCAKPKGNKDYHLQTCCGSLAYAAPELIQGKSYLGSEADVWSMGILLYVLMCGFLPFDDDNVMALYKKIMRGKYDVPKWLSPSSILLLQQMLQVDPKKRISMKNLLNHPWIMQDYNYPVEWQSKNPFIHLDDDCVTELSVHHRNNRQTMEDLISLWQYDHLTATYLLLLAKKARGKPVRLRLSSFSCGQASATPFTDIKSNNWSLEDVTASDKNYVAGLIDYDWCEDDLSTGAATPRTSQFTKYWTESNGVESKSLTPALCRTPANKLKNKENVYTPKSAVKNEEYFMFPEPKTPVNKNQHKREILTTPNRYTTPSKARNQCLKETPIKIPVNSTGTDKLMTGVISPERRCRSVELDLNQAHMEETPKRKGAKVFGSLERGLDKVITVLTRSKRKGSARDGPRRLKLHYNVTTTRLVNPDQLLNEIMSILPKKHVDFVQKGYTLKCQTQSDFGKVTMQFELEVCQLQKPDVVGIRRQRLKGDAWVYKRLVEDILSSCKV
Sequence of FGFR1 (P11362 whole entry): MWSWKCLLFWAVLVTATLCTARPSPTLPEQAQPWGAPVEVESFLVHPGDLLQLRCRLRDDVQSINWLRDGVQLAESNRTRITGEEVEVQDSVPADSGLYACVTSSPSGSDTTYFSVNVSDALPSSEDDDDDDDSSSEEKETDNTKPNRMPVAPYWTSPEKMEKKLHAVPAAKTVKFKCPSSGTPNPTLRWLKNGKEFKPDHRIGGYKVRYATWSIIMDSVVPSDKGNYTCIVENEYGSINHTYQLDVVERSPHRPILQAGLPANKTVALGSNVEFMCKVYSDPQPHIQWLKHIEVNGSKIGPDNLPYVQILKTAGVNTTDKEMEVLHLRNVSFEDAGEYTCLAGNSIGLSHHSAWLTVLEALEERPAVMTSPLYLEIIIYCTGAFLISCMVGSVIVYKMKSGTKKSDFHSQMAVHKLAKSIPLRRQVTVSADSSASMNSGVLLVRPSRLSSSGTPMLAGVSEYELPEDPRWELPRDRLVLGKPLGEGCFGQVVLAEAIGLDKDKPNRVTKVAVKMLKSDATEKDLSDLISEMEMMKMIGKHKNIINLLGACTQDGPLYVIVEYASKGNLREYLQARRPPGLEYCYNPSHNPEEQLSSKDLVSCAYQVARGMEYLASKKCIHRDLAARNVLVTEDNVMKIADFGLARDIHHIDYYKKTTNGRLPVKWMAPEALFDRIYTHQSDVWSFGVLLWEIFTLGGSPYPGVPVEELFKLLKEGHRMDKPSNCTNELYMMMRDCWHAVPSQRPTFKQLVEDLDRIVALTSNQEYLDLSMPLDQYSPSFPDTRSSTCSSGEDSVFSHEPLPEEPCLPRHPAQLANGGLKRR
Sequence of TGFBR1 (P36897 whole entry): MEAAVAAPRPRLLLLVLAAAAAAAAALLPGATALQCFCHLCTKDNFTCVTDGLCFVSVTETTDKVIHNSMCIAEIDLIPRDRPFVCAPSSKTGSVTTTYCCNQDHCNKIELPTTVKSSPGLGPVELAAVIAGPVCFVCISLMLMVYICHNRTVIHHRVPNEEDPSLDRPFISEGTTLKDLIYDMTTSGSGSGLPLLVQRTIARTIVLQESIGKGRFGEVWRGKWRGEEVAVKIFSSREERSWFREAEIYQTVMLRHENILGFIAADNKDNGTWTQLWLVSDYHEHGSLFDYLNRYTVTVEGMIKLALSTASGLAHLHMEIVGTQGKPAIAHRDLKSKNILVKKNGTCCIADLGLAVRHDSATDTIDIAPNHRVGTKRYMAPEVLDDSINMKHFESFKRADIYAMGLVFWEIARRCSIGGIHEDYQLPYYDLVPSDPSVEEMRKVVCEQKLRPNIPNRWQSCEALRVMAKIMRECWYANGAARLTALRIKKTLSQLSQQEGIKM
Sequence of EPHA7 (Q15375 whole entry): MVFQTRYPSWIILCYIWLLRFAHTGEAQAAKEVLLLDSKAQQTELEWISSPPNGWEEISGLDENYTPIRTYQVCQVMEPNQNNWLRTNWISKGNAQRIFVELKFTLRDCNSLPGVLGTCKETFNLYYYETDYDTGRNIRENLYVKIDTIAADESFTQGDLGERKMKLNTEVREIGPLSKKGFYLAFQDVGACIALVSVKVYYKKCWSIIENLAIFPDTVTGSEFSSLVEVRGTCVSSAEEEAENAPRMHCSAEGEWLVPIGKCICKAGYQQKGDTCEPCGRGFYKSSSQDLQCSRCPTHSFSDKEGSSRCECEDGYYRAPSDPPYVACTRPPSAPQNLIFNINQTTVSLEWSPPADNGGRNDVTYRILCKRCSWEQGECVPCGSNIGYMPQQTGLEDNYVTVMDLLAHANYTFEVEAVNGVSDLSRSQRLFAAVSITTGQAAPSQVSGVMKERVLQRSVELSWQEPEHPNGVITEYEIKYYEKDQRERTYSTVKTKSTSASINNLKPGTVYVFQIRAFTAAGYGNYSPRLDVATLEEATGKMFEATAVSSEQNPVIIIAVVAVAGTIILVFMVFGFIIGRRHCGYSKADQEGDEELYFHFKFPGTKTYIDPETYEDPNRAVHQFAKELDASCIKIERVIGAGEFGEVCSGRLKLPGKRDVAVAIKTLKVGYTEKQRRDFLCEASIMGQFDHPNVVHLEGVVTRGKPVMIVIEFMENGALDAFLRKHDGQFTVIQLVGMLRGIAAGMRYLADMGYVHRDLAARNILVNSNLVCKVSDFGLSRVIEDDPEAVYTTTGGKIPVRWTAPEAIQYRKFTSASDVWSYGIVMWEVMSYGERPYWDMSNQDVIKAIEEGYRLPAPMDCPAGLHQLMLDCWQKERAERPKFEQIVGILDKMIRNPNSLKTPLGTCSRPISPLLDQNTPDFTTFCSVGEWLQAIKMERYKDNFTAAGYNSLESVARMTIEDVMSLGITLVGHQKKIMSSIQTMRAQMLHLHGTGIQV

COc1ccccc1-c1n[nH]c2nc(N[C@H]3CC[C@H](NS(=O)(=O)CCC(F)(F)F)CC3)nc(OC)c12 [compound 31, 3,3,3-Trifluoro-N-(trans-4-((4-methoxy-3-(2-methoxyphenyl)-1H-pyrazolo[3,4-d]pyrimidin-6-yl)amino)cyclohexyl)propane-1-sulfonamide]
≥ 20 µM: all assays above
